Laboratory results reported in the RepoRT retention time repository (doi:10.1007/s11306-014-0638-x).

Experiment: RP, Waters ACQUITY UPLC HSS T3, 150 × 2.1 mm, 1.8 µm, 40 °C, 0.28 mL/min, estimated dead time 1.2 min; A: water + 0.1% formic acid, pH 3; B: methanol + 0.1% formic acid, pH 3; gradient (min/%B) 0/0 1/0 3/10 18/40 21/100 25.5/100 25.6/0 28/0
Conditions: stereoisomer not certain

In the case of `COc1cc(-c2oc3cc(=O)cc4oc(C)cc(c2OC2OC(CO)C(O)C(O)C2O)c43)cc(OC)c1O` (stereo not given) [methylpyrano malvidin 3-glucoside], the LC retention time is reported as 19.7 min.
`O=C1CC(c2ccc(O)c(O)c2)c2c(cc(O)c3c2OC(c2ccc(O)c(O)c2)C(O)C3)O1` (stereo not given) [caffeic acid+catechin condensation product] showed an LC retention time of 17.8 min.
Work on `O=c1c(OC2OC(CO)C(O)C(O)C2O)c(-c2ccc(OC3OC(CO)C(O)C(O)C3O)c(O)c2)oc2cc(O)cc(O)c12` (stereo not given) [quercetin 3,4'-diglucoside] yielded an LC retention time of 17.4 min.
Work on `COc1cc(C(=O)O)cc(OC)c1O` [syringic acid] yielded an LC retention time of 13.8 min.
With `Oc1ccc(/C=C\c2cc(O)cc(O)c2)cc1` [cis-resveratrol] the LC retention time was 20.4 min.
With `N[C@@H](Cc1ccc(O)cc1)C(=O)O` [L-tyrosine] the LC retention time was 4.28 min.
`COc1cc(-c2oc3cc(=O)cc4oc(O)cc(c2OC2OC(CO)C(O)C(O)C2O)c43)cc(OC)c1O` (stereo not given) [oxovitisin A] gave an LC retention time of 20.7 min.
`OCC1OC(Oc2cc(O)cc(C=Cc3ccc(O)cc3)c2)C(O)C(O)C1O` (stereo not drawn) [cis-piceid] gave an LC retention time of 18.4 min.
`O=C(CCc1ccc(O)cc1)c1c(O)cc(O)cc1O` [phloretin] gave an LC retention time of 21.1 min.
For `COC(=O)c1cc(O)c(O)c(O)c1` [methyl gallate], the LC retention time was 10.7 min.
`O=c1cc(-c2ccc(O)c(O)c2)oc2cc(OC3OC(CO)C(O)C(O)C3O)cc(O)c12` (stereo not given) [luteolin 7-glucoside] gave an LC retention time of 19.7 min.
With `O=c1c(OC2OC(C(O)CO)C(O)C2O)c(-c2ccc(O)c(O)c2)oc2cc(O)cc(O)c12` (stereo not given) [quercetin 3-glucoside] the LC retention time was 20 min.
In the case of `CC(O)(CC(=O)O)C(=O)O` (stereo not given) [citramalic acid], the LC retention time is reported as 4.02 min.
Work on `O=C(CCc1ccc(O)cc1)c1c(O)cc(O)cc1OC1OC(CO)C(O)C(O)C1O` (stereo not given) [phloridzin] yielded an LC retention time of 20.2 min.
`CC[C@H](C)[C@H](N)C(=O)O` [L-isoleucine] gave an LC retention time of 4.44 min.
With `CCOC(=O)c1cc(O)c(O)c(O)c1` [ethyl gallate] the LC retention time was 15.2 min.
`O=C(O)[C@@H]1CCCN1` [L-proline] gave an LC retention time of 1.51 min.
In the case of `OCC1OC(Oc2cc(O)cc(C=Cc3ccc(O)c(O)c3)c2)C(O)C(O)C1O` (stereo not given) [astringin], the LC retention time is reported as 14.2 min.
Work on `COc1cc2ccc(=O)oc2c(OC2OC(CO)C(O)C(O)C2O)c1O` (stereo not given) [fraxin] yielded an LC retention time of 12.6 min.
In the case of `CC1OC(OCC2OC(Oc3c(-c4ccc(O)cc4)oc4cc(O)cc(O)c4c3=O)C(O)C(O)C2O)C(O)C(O)C1O` (stereo not given) [kaempferol 3-rutinoside], the LC retention time is reported as 20.5 min.
Work on `O=C1c2c(O)cc(O)cc2OC(c2ccc(O)c(O)c2)C1O` (stereo not given) [taxifolin] yielded an LC retention time of 16.8 min.
`Oc1cc(O)c2c(c1)OC(c1ccc(O)c(O)c1)C(O)C2c1c(O)cc(O)c2c1OC(c1ccc(O)c(O)c1)C(O)C2` (stereo not given) [procyanidin B1] showed an LC retention time of 9.66 min.
`O=c1c(OC2OC(CO)C(O)C(O)C2O)c(-c2ccc(O)cc2)oc2cc(O)cc(O)c12` (stereo not given) [kaempferol 3-glucoside] showed an LC retention time of 20.3 min.
Work on `O=c1cc[nH]c(=O)[nH]1` [uracil] yielded an LC retention time of 2.34 min.
In the case of `O=c1c(O)c(-c2ccc(OC3OC(CO)C(O)C(O)C3O)c(O)c2)oc2cc(O)cc(O)c12` (stereo not given) [quercetin 4'-glucoside], the LC retention time is reported as 20.4 min.
In the case of `CCOc1ccc(NC(C)=O)cc1` [phenacetin], the LC retention time is reported as 19.4 min.
`O=C(OC1Cc2c(O)cc(O)cc2OC1c1ccc(O)c(O)c1)c1cc(O)c(O)c(O)c1` (stereo not given) [epicatechin gallate] gave an LC retention time of 16 min.
With `COc1cc(C=Cc2ccc(O)cc2)cc(OC)c1` [pterostilbene] the LC retention time was 21.9 min.
With `O=C(O)c1ccc(O)cc1` [4-hydroxybenzoic acid] the LC retention time was 10.6 min.
With `CC1OC(OCC2OC(Oc3c(-c4ccc(O)c(O)c4)oc4cc(O)cc(O)c4c3=O)C(O)C(O)C2O)C(O)C(O)C1O` (stereo not given) [quercetin 3-rutinoside] the LC retention time was 20 min.
Work on `Oc1cc(O)c2c(c1)OC(c1ccc(O)c(O)c1)C(O)C2` (stereo not given) [epicatechin] yielded an LC retention time of 12.1 min.
For `Oc1ccc(C2Oc3ccc(C=Cc4cc(O)cc5c4C(c4cc(O)cc(O)c4)C(c4ccc(O)cc4)O5)cc3C2c2cc(O)cc3c2C(c2cc(O)cc(O)c2)C(c2ccc(O)cc2)O3)cc1` (stereo not given) [vitisin B], the LC retention time was 18.3 min.
With `COc1ccc(C2CC(=O)c3c(O)cc(O)cc3O2)cc1O` (stereo not given) [hesperetin] the LC retention time was 21.1 min.
In the case of `COc1cc(C=Cc2cc(O)cc(OC3OC(CO)C(O)C(O)C3O)c2)ccc1O` (stereo not given) [isorhapontin], the LC retention time is reported as 17.6 min.
For `O=C(OC1Cc2c(O)cc(O)cc2OC1c1cc(O)c(O)c(O)c1)c1cc(O)c(O)c(O)c1` (stereo not given) [epigallo-catechin gallate], the LC retention time was 12.7 min.
With `Oc1cc(O)c2c(c1)OC(c1cc(O)c(O)c(O)c1)C(O)C2` (stereo not given) [gallocatechin] the LC retention time was 8.68 min.
`O=C(C=Cc1ccc(O)cc1)OC(C(=O)O)C(O)C(=O)O` (stereo not drawn) [trans coutaric acid] gave an LC retention time of 10.7 min.
`O=C(O)c1cc(O)cc(O)c1` [3,5-dihydroxybenzoic acid] showed an LC retention time of 7.75 min.
In the case of `CCC(=O)O` [proprionic acid], the LC retention time is reported as 3.95 min.
`NC(CCC(=O)NC(CS)C(=O)NCC(=O)O)C(=O)O` [L-glutathione] showed an LC retention time of 1.7 min.
`O=c1oc2c(O)c(O)cc3c(=O)oc4c(O)c(O)cc1c4c23` [ellagic acid] showed an LC retention time of 20.3 min.
With `COc1cc(C=CC(=O)OC(C(=O)O)C(O)C(=O)O)ccc1O` (stereo not given) [fertaric acid] the LC retention time was 11.8 min.
Work on `Oc1ccc(C2Oc3cc(O)cc(O)c3CC2O)cc1` (stereo not given) [epiafzelechin] yielded an LC retention time of 15.6 min.
`O=C(O)CCC(=O)O` [succinic acid] gave an LC retention time of 3.94 min.
`COc1cc(-c2oc3cc(=O)cc4oc(O)c(C=[OH+])c(c2OC2OC(CO)C(O)C(O)C2O)c43)cc(OC)c1O` (stereo not given) [vitisin A] gave an LC retention time of 19.3 min.
In the case of `O=c1[nH]c(=O)c2[nH]c(=O)[nH]c2[nH]1` [uric acid], the LC retention time is reported as 3.44 min.
For `COc1cc(-c2oc3cc(O)cc(O)c3c(=O)c2OC2OC(CO)C(O)C(O)C2O)ccc1O` (stereo not given) [isorhamnetin 3-glucoside], the LC retention time was 20.5 min.
Compound `O=C(O)c1ccc(O)c(O)c1` [3,4-dihydroxybenzoic acid] has an LC retention time of 7.77 min.
Work on `O=C1CC(c2ccc(O)cc2)Oc2cc(O)cc(O)c21` (stereo not given) [naringenin] yielded an LC retention time of 21 min.
With `COc1cc(-c2oc3cc(O)cc(O)c3c(=O)c2OC2OC(COC3OC(C)C(O)C(O)C3O)C(O)C(O)C2O)ccc1O` (stereo not given) [isorhamnetin 3-rutinoside] the LC retention time was 20.6 min.
Compound `O=C(O)C1(O)CC(O)C(O)C(O)C1` (stereo not given) [quinic acid] has an LC retention time of 1.58 min.
`O=C(C=Cc1ccc(O)c(O)c1)OC(C(=O)O)C(O)C(=O)O` (stereo not given) [caftaric acid] gave an LC retention time of 8.53 min.
`O=C(O)C1OC(Oc2c(-c3ccc(O)c(O)c3)oc3cc(O)cc(O)c3c2=O)C(O)C(O)C1O` (stereo not given) [quercetin 3-glucuronide] showed an LC retention time of 19.9 min.
Compound `O=C(O)[C@H](O)[C@@H](O)C(=O)O` [L-tartaric acid] has an LC retention time of 1.46 min.
`Oc1ccc(C2c3c(O)cc(O)cc3C3C(c4ccc(O)cc4)c4c(O)cc(O)cc4C23)cc1` (stereo not given) [pallidol] showed an LC retention time of 17.6 min.
In the case of `Oc1ccc(C2Oc3cc(O)cc4c3C2c2cc(O)cc(O)c2C(c2ccc(O)cc2)C4C2c3cc(O)cc4c3C(c3cc(O)cc(O)c3C2c2ccc(O)cc2)C(c2ccc(O)cc2)O4)cc1` (stereo not given) [isohopeaphenol], the LC retention time is reported as 10.7 min.
For `O=C(O)C=Cc1ccccc1O` [o-coumaric acid], the LC retention time was 19.7 min.
Work on `O=c1c(OS(=O)(=O)O)c(-c2ccc(O)c(O)c2)oc2cc(O)cc(O)c12` [quercetin 3-sulfate] yielded an LC retention time of 20.1 min.
With `O=c1[nH]c(=O)c2[nH]cnc2[nH]1` [xanthine] the LC retention time was 3.97 min.
In the case of `O=C1CC(c2ccc(O)cc2)Oc2cc(OC3OC(CO)C(O)C(O)C3O)cc(O)c21` (stereo not given) [naringenin 7-glucoside], the LC retention time is reported as 19.5 min.
